The text below walks through data of US8071345B2, “Stabilized subtilisin composition” (Novozymes A/S, priority 2006, dated 2011).

subtilisin, sequence (P00780 106-379): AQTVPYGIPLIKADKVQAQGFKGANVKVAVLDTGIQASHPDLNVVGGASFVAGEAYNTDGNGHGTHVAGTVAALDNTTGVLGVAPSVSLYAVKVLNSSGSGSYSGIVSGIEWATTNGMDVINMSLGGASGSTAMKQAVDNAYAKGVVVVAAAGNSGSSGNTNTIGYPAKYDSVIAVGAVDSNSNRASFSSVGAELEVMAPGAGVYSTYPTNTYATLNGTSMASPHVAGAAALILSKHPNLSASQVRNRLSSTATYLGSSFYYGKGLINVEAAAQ

One test addresses T1, Savinase (Lederbergia lenta, UniProt P29600).
T1 construct: Novozymes A/S
T1 sequence (P29600 1-269): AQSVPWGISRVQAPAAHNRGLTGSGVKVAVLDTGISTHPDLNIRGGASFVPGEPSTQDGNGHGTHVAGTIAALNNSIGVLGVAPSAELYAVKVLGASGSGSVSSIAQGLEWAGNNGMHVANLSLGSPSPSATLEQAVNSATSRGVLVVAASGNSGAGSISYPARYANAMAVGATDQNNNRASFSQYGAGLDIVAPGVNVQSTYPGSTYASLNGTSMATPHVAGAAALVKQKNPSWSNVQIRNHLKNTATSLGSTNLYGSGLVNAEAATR
Put plainly: biochemical.
Settings: not given
How it is done:
The inhibition constant KI=[E][I]/[EI] for the inhibition of Savinase was determined using standard methods under the following conditions:
Substrate: Succinyl-Alanine-Alanine-Proline-para-nitro-anilide=SAAPFpNA (Sigma S-7388).
Buffer: 0.1 M phosphate buffer pH 7.5
Enzyme concentration in assay≈1×10^−8 M
The initial rate of substrate hydrolysis was determined with and without inhibitor at nine substrate concentrations in the range of 0.01 mM to 2 mM using an automated spectrophotometer.
The inhibition constant KI was determined using Sigma Plot 9.0, Enzyme Kinetics Module 1.1
As for `O=C(O)Cc1ccccc1` [Phenylacetic acid], the Ki was 10 mM.

The compound `O=C(O)c1ccccc1` [Benzoic Acid] had an inhibition constant (Ki) of 22 mM. Still for that read-out and setting: the figure for `O=C(O)Cc1ccccc1Cl` [2-chlorophenylacetic acid] is 11 mM; for `Nc1ccccc1C(=O)O` [2-aminobenzoic acid] it is 16 mM; for `O=C(O)c1cccc(Cl)c1` [3-chlorobenzoic acid] it is 4 mM. The same measure, in the same setting: the figure for `O=Cc1ccc(O)c(O)c1` [3,4-dihydrozybenzaldehyde] is 11 mM; for `O=C(O)Cc1cccc(Cl)c1` [3-chlorophenylacetic acid] it is 7 mM.

Still in this test, the particulars now being: Example 1; 0.1 M phosphate buffer pH 7.5, 25° C., substrate SAAPFpNA 0.01-2 mM, enzyme ≈1×10^−8 M; read-out: Ki.
Turning to `O=Cc1ccc(C(=O)O)cc1` [4-formylbenzoic acid], the inhibition constant Ki stood at 25 mM. `O=C(O)c1ccc(C(=O)O)cc1` [Terephtalic acid (4-carboxybenzoic acid)]: the inhibition constant (Ki) was found to be 99 mM.

Consider `O=C(O)CCc1ccccc1` [Phenylpropionic acid], for which the Ki turned out to be 9 mM. Same read-out and setting: the figure for `O=C(O)c1cc(Cl)cc(Cl)c1` [3,5-dichorobenzoic acid] is 2 mM.

The same test, now with this note: Example 2, acids; 0.1 M phosphate buffer pH 7.5, 25° C., substrate SAAPFpNA 0.01-2 mM, enzyme ≈1×10^−8 M; read-out: Ki.
On to `O=C(O)c1cccc(Br)c1` [3-bromobenzoic acid], for which the inhibitory constant (Ki) was 6 mM. As for `O=C(O)c1cccc(F)c1` [3-fluorobenzoic acid], the inhibitory constant (Ki) amounted to 17 mM. The same measure, in the same setting: the figure for `O=C(O)CCCc1ccccc1` [4-phenylbutyric acid] is 19 mM; for `O=C(O)c1ccccc1Cl` [2-chlorobenzoic acid] it is 16 mM. Same read-out and setting: the figure for `O=C(O)c1cccc(O)c1` [3-hydroxybenzoic acid] is 29 mM; for `O=C(O)CCc1ccc(Cl)cc1` [3-(4-chlorophenyl)propionic acid] it is 10 mM.

Consider `O=C(O)Cc1ccc(Cl)cc1` [4-chlorophenylacetic acid], for which the inhibitory constant (Ki) turned out to be 11 mM. Same read-out and setting: next, `O=C(O)c1cccc(I)c1` [3-iodobenzoic acid]: 9 mM; `O=C(O)c1cc(O)cc(O)c1` [3,5-dihydroxybenzoic acid]: 76 mM; `O=C(O)c1cccc(CCl)c1` [3-(chloromethyl)benzoic acid]: 32 mM.

As for `Nc1cccc(C(=O)O)c1` [3-aminobenzoic acid], the inhibition constant Ki is 43 mM. The same measure, in the same setting: the figure for `O=Cc1cccc(C(=O)O)c1` [3-formylbenzoic acid] is 27 mM; for `O=C(O)c1cccc([N+](=O)[O-])c1` [3-nitrobenzoic acid] it is 9 mM; for `Nc1ccc(C(=O)O)cc1` [4-aminobenzoic acid] it is 82 mM.

Take `O=C(O)CCc1cccc(Cl)c1` [3-(3-chlorophenyl)propionic acid]: the inhibition constant Ki is 5 mM.

The test is the same for the next values; noted with them: Example 3, aldehydes; 0.1 M phosphate buffer pH 7.5, 25° C., substrate SAAPFpNA 0.01-2 mM, enzyme ≈1×10^−8 M; read-out: Ki.
As for `O=Cc1cccc(O)c1` [3-hydroxybenzaldehyde], the inhibition constant (Ki) is 16 mM.

In the next test the test system is proteolytic enzymes.
Assay: not given
Conditions: as claimed in WO 92/19707; cited from earlier work.
As to `CC(=O)Nc1cccc(B(O)O)c1` [acetamidophenyl boronic acid], the “inhibitor of proteolytic enzymes” value is on record as “superior inhibitor”.

The next test has as its target subtilisin (Bacillus licheniformis, UniProt P00780).
Assay: not given
The settings on record: Keller et al, Biochem. Biophys. Res. Com. 176, 1991; cited from earlier work.
As to `CB(O)O` [methylboronic acid], the “capacity as subtilisin inhibitor” value is reported as “poorest inhibitor”. Consider `OB(O)c1cc(Cl)cc(Cl)c1` [3,5-dichlorophenylboronic acid], for which the “capacity as subtilisin inhibitor” value was “particularly effective”.

The term Ki denotes a dissociation constant, usually derived from enzyme kinetics or from competition with a known ligand.
